# Reference: patent publication US9777005B2 (Takeda Pharmaceutical Company Limited, priority 2012, dated 2017)
# Biological target: T1, human M1 receptor (hCHRM1) (Homo sapiens, UniProt P11229)
# T1 construct: expressed in transfected cells; host or cells: CHO-K1
# T1 sequence (P11229 1-460): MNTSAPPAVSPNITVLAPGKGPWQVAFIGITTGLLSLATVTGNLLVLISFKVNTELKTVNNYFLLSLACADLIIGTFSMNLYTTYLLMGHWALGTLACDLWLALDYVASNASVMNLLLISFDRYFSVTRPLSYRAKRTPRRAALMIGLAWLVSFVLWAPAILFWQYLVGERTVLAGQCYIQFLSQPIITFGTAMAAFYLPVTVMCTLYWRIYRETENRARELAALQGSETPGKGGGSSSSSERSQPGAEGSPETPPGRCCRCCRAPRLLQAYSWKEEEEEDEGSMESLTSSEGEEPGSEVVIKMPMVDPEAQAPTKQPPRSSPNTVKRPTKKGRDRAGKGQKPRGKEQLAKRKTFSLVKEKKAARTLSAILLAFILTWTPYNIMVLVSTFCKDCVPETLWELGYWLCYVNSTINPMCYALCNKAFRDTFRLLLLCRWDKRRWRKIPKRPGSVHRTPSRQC
# Test: Measurement of M1 receptor positive allosteric modulator (M1PAM) activity, calcium fluorescence (FLIPRtetra) in CHO-K1 cells in the presence of acetylcholine at EC20
# Assay type: cell-based
# Settings: in the presence of acetylcholine at EC20 (final 0.6 nM), CHO-K1 cells expressing hCHRM1; for EC50: inflection point of M1PAM activity, read-out: IP value; for activity (%) at 10 μM: test compound 10 μM
# Procedure, shortened: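 CHO-K1 cells expressing human M1 were loaded with Fluo-4 AM, and compound was added with acetylcholine at EC20 (final 0.6 nM). Calcium fluorescence was read on FLIPRtetra for 1 min. Activity was normalized to 1 μM acetylcholine (100%) and DMSO (0%), and the curve inflection point was reported as IP.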
SMILES,EC50 [nM],activity (%) at 10 μM [%]
"Cn1ccc(-c2ccc(CN3Cc4ccnc(Oc5c(F)cc(F)cc5F)c4C3=O)cc2)n1 [Example 365, 2-(4-(1-methyl-1H-pyrazol-3-yl)benzyl)-4-(2,4,6-trifluorophenoxy)-1H-pyrrolo[3,4-c]pyridin-3(2H)-one]",44,104
"NC(=O)c1ccc(CN2Cc3cccc(Oc4ccc(C(F)(F)F)cc4F)c3C2=O)cc1 [Example 460, 4-((7-(2-fluoro-4-(trifluoromethyl)phenoxy)-1-oxo-1,3-dihydro-2H-isoindol-2-yl)methyl)benzamide]",17,96
"Cn1ccc(-c2ccc(CN3Cc4ccnc(OCC5CCCO5)c4C3=O)cc2)n1 (stereo not drawn) [Example 79, 2-(4-(1-methyl-1H-pyrazol-3-yl)benzyl)-4-((tetrahydrofuran-2-yl)methoxy)-1,2-dihydro-3H-pyrrolo[3,4-c]pyridin-3-one]",29,114
"Cn1ccc(-c2ccc(CN3Cc4ccnc(OCc5ccccc5F)c4C3=O)c(F)c2)n1 [Example 342, 4-((2-fluorobenzyl)oxy)-2-(2-fluoro-4-(1-methyl-1H-pyrazol-3-yl)benzyl)-1,2-dihydro-3H-pyrrolo[3,4-c]pyridin-3-one]",73,96
"Cc1cc(-c2ccc(CN3Cc4cccc(Oc5c(F)cc(C#N)cc5F)c4C3=O)cc2)cnn1 [Example 398, 3,5-difluoro-4-((2-(4-(6-methylpyridazin-4-yl)benzyl)-3-oxo-2,3-dihydro-1H-isoindol-4-yl)oxy)benzonitrile]",20,99
"O=C1c2c(cccc2O[C@H]2CCCC[C@@H]2O)CN1Cc1ccc(-c2cn[nH]c2)cc1 (relative stereo) [Example 26, 7-((trans-2-hydroxycyclohexyl)oxy)-2-(4-(1H-pyrazol-4-yl)benzyl)isoindolin-1-one]",4.1,96
"Cc1cc(-c2ccc(CN3Cc4ccnc(Oc5ccc(C(F)(F)F)cc5F)c4C3=O)cc2)cnn1 [Example 303, 4-(2-fluoro-4-(trifluoromethyl)phenoxy)-2-(4-(6-methylpyridazin-4-yl)benzyl)-1,2-dihydro-3H-pyrrolo[3,4-c]pyridin-3-one]",8.5,91
"CC(O)c1ccc(Oc2nccc3c2C(=O)N(Cc2ccc(-c4cnn(C)c4)cc2)C3)c(F)c1 (stereo not drawn) [Example 394, 4-(2-fluoro-4-(1-hydroxyethyl)phenoxy)-2-(4-(1-methyl-1H-pyrazol-4-yl)benzyl)-1,2-dihydro-3H-pyrrolo[3,4-c]pyridin-3-one]",7.1,109
"CCc1cc(F)c(Oc2nccc3c2C(=O)N(Cc2ccc(-c4ccn(C)n4)cc2)C3)c(F)c1 [Example 430, 4-(4-ethyl-2,6-difluorophenoxy)-2-(4-(1-methyl-1H-pyrazol-3-yl)benzyl)-1,2-dihydro-3H-pyrrolo[3,4-c]pyridin-3-one]",17,110
"Cn1ccc(-c2ccc(CN3Cc4ccnc(OCC5CCCO5)c4C3=O)cc2)n1 (single isomer, unassigned) [Example 245, 2-(4-(1-methyl-1H-pyrazol-3-yl)benzyl)-4-((tetrahydrofuran-2-yl)methoxy)-1,2-dihydro-3H-pyrrolo[3,4-c]pyridin-3-one]",57,101
"Cc1nn(C)cc1-c1ccc(CN2Cc3ccnc(Oc4ccc(C(F)F)cc4F)c3C2=O)c(F)c1 [Example 381, 4-(4-(difluoromethyl)-2-fluorophenoxy)-2-(4-(1,3-dimethyl-1H-pyrazol-4-yl)-2-fluorobenzyl)-1,2-dihydro-3H-pyrrolo[3,4-c]pyridin-3-one]",7.8,103
"Cn1ccc(-c2ccc(CN3Cc4ncnc(Oc5c(F)cccc5F)c4C3=O)cc2)n1 [Example 395, 4-(2,6-difluorophenoxy)-6-(4-(1-methyl-1H-pyrazol-3-yl)benzyl)-6,7-dihydro-5H-pyrrolo[3,4-d]pyrimidin-5-one]",65,96
"CNC(=O)c1ccc(CN2Cc3ccnc(Oc4ccc(C(F)(F)F)cc4F)c3C2=O)cc1 [Example 431, 4-((4-(2-fluoro-4-(trifluoromethyl)phenoxy)-3-oxo-1,3-dihydro-2H-pyrrolo[3,4-c]pyridin-2-yl)methyl)-N-methylbenzamide]",6.8,103
"Cn1cc(-c2coc(CN3Cc4cccc(Oc5c(F)cccc5C#N)c4C3=O)c2)cn1 [Example 69, 3-fluoro-2-((2-((4-(1-methyl-1H-pyrazol-4-yl)-2-furyl)methyl)-3-oxo-2,3-dihydro-1H-isoindol-4-yl)oxy)benzonitrile]",410,103
"Cc1cc(-c2ccc(CN3Cc4ncnc(Oc5ccc(C(F)(F)F)cc5F)c4C3=O)cc2)cnn1 [Example 311, 4-(2-fluoro-4-(trifluoromethyl)phenoxy)-6-(4-(6-methylpyridazin-4-yl)benzyl)-6,7-dihydro-5H-pyrrolo[3,4-d]pyrimidin-5-one]",16,100
"Cn1cc(-c2ccc(CN3Cc4ccnc(OC5CCC5)c4C3=O)cc2)cn1 [Example 348, 4-(cyclobutyloxy)-2-(4-(1-methyl-1H-pyrazol-4-yl)benzyl)-1,2-dihydro-3H-pyrrolo[3,4-c]pyridin-3-one]",74,97
"CNC(=O)c1ccc(CN2Cc3cccc(Oc4ccc(C(F)(F)F)cc4F)c3C2=O)cc1 [Example 439, 4-((7-(2-fluoro-4-(trifluoromethyl)phenoxy)-1-oxo-1,3-dihydro-2H-isoindol-2-yl)methyl)-N-methylbenzamide]",13,96
"Cn1cc(-c2ccc(CN3Cc4ccnc(OCc5ccc(F)cc5F)c4C3=O)cc2)nn1 [Example 336, 4-((2,4-difluorobenzyl)oxy)-2-(4-(1-methyl-1H-1,2,3-triazol-4-yl)benzyl)-1,2-dihydro-3H-pyrrolo[3,4-c]pyridin-3-one]",22,106
"O=C1c2c(cccc2O[C@H]2CCCC[C@@H]2O)CN1Cc1ccc(-c2ccnn2C2CCCCO2)cc1 (relative stereo) [Example 30, 7-((trans-2-hydroxycyclohexyl)oxy)-2-(4-(1-(tetrahydro-2H-pyran-2-yl)-1H-pyrazol-5-yl)benzyl)isoindolin-1-one]",190,104
Cn1cc(-c2ccc(CN3Cc4ccnc(OCC5CCCO5)c4C3=O)cc2)cn1 (stereo not drawn) [Example 285],10,95
"Cc1nn(C)cc1-c1ccc(CN2Cc3ccnc(O[C@@H]4CCC[C@H]4O)c3C2=O)cc1 (single isomer, unassigned) [Example 255, 2-(4-(1,3-dimethyl-1H-pyrazol-4-yl)benzyl)-4-((trans-2-hydroxycyclopentyl)oxy)-1,2-dihydro-3H-pyrrolo[3,4-c]pyridin-3-one]",48,106
"O=C1c2c(cccc2O[C@H]2CCC[C@@H]2O)CN1Cc1ccc(-n2cccn2)cc1 (relative stereo) [Example 54, 2-(4-(1H-pyrazol-1-yl)benzyl)-7-((trans-2-hydroxycyclopentyl)oxy)isoindolin-1-one]",160,106
"C[C@@H](O)[C@@H](C)Oc1nccc2c1C(=O)N(Cc1ccc(-c3ccn(C)n3)cc1)C2 [Example 426, 4-(((2R,3R)-3-hydroxybutan-2-yl)oxy)-2-(4-(1-methyl-1H-pyrazol-3-yl)benzyl)-1,2-dihydro-3H-pyrrolo[3,4-c]pyridin-3-one]",8.8,102
"NC(=O)c1ccc(CN2Cc3ccnc(Oc4ccc(C5CC5)cc4F)c3C2=O)cc1 [Example 448, 4-((4-(4-cyclopropyl-2-fluorophenoxy)-3-oxo-1,3-dihydro-2H-pyrrolo[3,4-c]pyridin-2-yl)methyl)benzamide]",6.1,102
"CCCc1ccc(Oc2nccc3c2C(=O)N(Cc2ccc(C(N)=O)cc2)C3)c(F)c1 [Example 450, 4-((4-(2-fluoro-4-propylphenoxy)-3-oxo-1,3-dihydro-2H-pyrrolo[3,4-c]pyridin-2-yl)methyl)benzamide]",10,102
"CCNC(=O)c1ccc(CN2Cc3ccnc(Oc4ccc(C)cc4F)c3C2=O)c(F)c1 [Example 441, N-ethyl-3-fluoro-4-((4-(2-fluoro-4-methylphenoxy)-3-oxo-1,3-dihydro-2H-pyrrolo[3,4-c]pyridin-2-yl)methyl)benzamide]",44,100
"Cc1ccc(Oc2nccc3c2C(=O)N(Cc2ccc(-c4ccn(C)n4)cc2)C3)c(F)c1 [Example 420, 4-(2-fluoro-4-methylphenoxy)-2-(4-(1-methyl-1H-pyrazol-3-yl)benzyl)-1,2-dihydro-3H-pyrrolo[3,4-c]pyridin-3-one]",39,101
